Values quoted from earlier work as cited in patent US20100056546A1, “SULFONYLUREA INHIBITORS OF ATP-SENSITIVE POTASSIUM CHANNELS” (Auspex Pharmaceuticals, Inc., priority 2008, published 2010).

Settings: compared with glipizide; Ambrogi et al. 1972

Cc1cnc(C(=O)NCCc2ccc(S(=O)(=O)NC(=O)N[C@H]3CCC[C@@H](O)C3)cc2)cn1 (relative stereo) [cis-3-hydroxy-glipizide]
activity relative to the parent compound: significantly less active

Cc1cnc(C(=O)NCCc2ccc(S(=O)(=O)NC(=O)N[C@H]3CC[C@H](O)CC3)cc2)cn1 [trans-4-hydroxy-glipizide]
activity relative to the parent compound: significantly less active
